Reference: patent publication US6379649B1, “Imidazo(1,2-a)pyridines as peripheral benzodiazepine receptor binding agents” (Australian Nuclear Science & Technology Organisation, priority 1998, dated 2002)

Assay: In vivo biodistribution of radiolabelled compounds in rats
Text: In vivo biodistribution of radiolabelled compounds of the invention indicated high uptake in the tissues which have known PBR sites. Tables 2 to 4 show the biodistribution of the compounds of Examples 1-3, in which the iodine atom is radiolabelled, when administered to rats.

## CCN(CC)C(=O)Cc1c(-c2ccc([123I])cc2)nc2ccc(Cl)cn12 [^123-I Example 3]
5 Min
  Biodistribution (% ID/g organ) Adrenals: 2.11 ± 0.12 % ID/g organ
  Biodistribution (% ID/g organ) Blood: 0.46 ± 0.08 % ID/g organ
  Biodistribution (% ID/g organ) Brain: 0.33 ± 0.04 % ID/g organ
  Biodistribution (% ID/g organ) Heart: 2.63 ± 0.30 % ID/g organ
  Biodistribution (% ID/g organ) Kidney: 1.73 ± 0.38 % ID/g organ
  Biodistribution (% ID/g organ) Liver: 0.87 ± 0.13 % ID/g organ
  Biodistribution (% ID/g organ) Lungs: 13.16 ± 1.24 % ID/g organ
  Biodistribution (% ID/g organ) Olfactive bulbs: 0.44 ± 0.08 % ID/g organ
15 Min
  Biodistribution (% ID/g organ) Adrenals: 2.03 ± 0.8 % ID/g organ
  Biodistribution (% ID/g organ) Blood: 0.16 ± 0.02 % ID/g organ
  Biodistribution (% ID/g organ) Brain: 0.2 ± 0.02 % ID/g organ
  Biodistribution (% ID/g organ) Heart: 2.39 ± 035 % ID/g organ
  Biodistribution (% ID/g organ) Kidney: 2.11 ± 0.31 % ID/g organ
  Biodistribution (% ID/g organ) Liver: 0.93 ± 0.06 % ID/g organ
  Biodistribution (% ID/g organ) Lungs: 6.98 ± 1.87 % ID/g organ
  Biodistribution (% ID/g organ) Olfactive bulbs: 0.31 ± 0.03 % ID/g organ
24 Hrs
  Biodistribution (% ID/g organ) Adrenals: 4.56 ± 0.74 % ID/g organ
  Biodistribution (% ID/g organ) Blood: 0.02 ± 0.001 % ID/g organ
  Biodistribution (% ID/g organ) Brain: 0.01 ± 0.001 % ID/g organ
  Biodistribution (% ID/g organ) Heart: 0.39 ± 0.03 % ID/g organ
  Biodistribution (% ID/g organ) Kidney: 0.25 ± 0.03 % ID/g organ
  Biodistribution (% ID/g organ) Liver: 0.06 ± 0.001 % ID/g organ
  Biodistribution (% ID/g organ) Lungs: 0.31 ± 0.06 % ID/g organ
  Biodistribution (% ID/g organ) Olfactive bulbs: 0.09 ± 0.001 % ID/g organ
30 Min
  Biodistribution (% ID/g organ) Adrenals: 2.42 ± 0.36 % ID/g organ
  Biodistribution (% ID/g organ) Blood: 0.12 ± 0.03 % ID/g organ
  Biodistribution (% ID/g organ) Brain: 0.15 ± 0.01 % ID/g organ
  Biodistribution (% ID/g organ) Heart: 2.44 ± 0.28 % ID/g organ
  Biodistribution (% ID/g organ) Kidney: 2.31 ± 0.02 % ID/g organ
  Biodistribution (% ID/g organ) Liver: 0.76 ± 0.01 % ID/g organ
  Biodistribution (% ID/g organ) Lungs: 4.91 ± 0.22 % ID/g organ
  Biodistribution (% ID/g organ) Olfactive bulbs: 0.26 ± 0.03 % ID/g organ
48 Hrs
  Biodistribution (% ID/g organ) Adrenals: 4.87 ± 0.55 % ID/g organ
  Biodistribution (% ID/g organ) Blood: 0.01 ± 0.001 % ID/g organ
  Biodistribution (% ID/g organ) Brain: 0.01 ± 0.001 % ID/g organ
  Biodistribution (% ID/g organ) Heart: 0.17 ± 0.002 % ID/g organ
  Biodistribution (% ID/g organ) Kidney: 0.12 ± 0.01 % ID/g organ
  Biodistribution (% ID/g organ) Liver: 0.04 ± 0.001 % ID/g organ
  Biodistribution (% ID/g organ) Lungs: 0.17 ± 0.02 % ID/g organ
  Biodistribution (% ID/g organ) Olfactive bulbs: 0.07 ± 0.001 % ID/g organ
60 Min
  Biodistribution (% ID/g organ) Adrenals: 2.83 ± 0.41 % ID/g organ
  Biodistribution (% ID/g organ) Blood: 0.06 ± 0.02 % ID/g organ
  Biodistribution (% ID/g organ) Brain: 0.08 ± 0.02 % ID/g organ
  Biodistribution (% ID/g organ) Heart: 2.65 ± 0.63 % ID/g organ
  Biodistribution (% ID/g organ) Kidney: 1.87 ± 0.66 % ID/g organ
  Biodistribution (% ID/g organ) Liver: 0.41 ± 0.14 % ID/g organ
  Biodistribution (% ID/g organ) Lungs: 2.76 ± 0.80 % ID/g organ
  Biodistribution (% ID/g organ) Olfactive bulbs: 0.2 ± 0.07 % ID/g organ
180 Min
  Biodistribution (% ID/g organ) Adrenals: 4.1 ± 0.80 % ID/g organ
  Biodistribution (% ID/g organ) Blood: 0.04 ± 0.001 % ID/g organ
  Biodistribution (% ID/g organ) Brain: 0.05 ± 0.001 % ID/g organ
  Biodistribution (% ID/g organ) Heart: 2.59 ± 0.16 % ID/g organ
  Biodistribution (% ID/g organ) Kidney: 1.71 ± 0.17 % ID/g organ
  Biodistribution (% ID/g organ) Liver: 0.28 ± 0.02 % ID/g organ
  Biodistribution (% ID/g organ) Lungs: 1.63 ± 0.07 % ID/g organ
  Biodistribution (% ID/g organ) Olfactive bulbs: 0.16 ± 0.02 % ID/g organ
240 Min
  Biodistribution (% ID/g organ) Adrenals: 4.32 ± 0.60 % ID/g organ
  Biodistribution (% ID/g organ) Blood: 0.05 ± 0.001 % ID/g organ
  Biodistribution (% ID/g organ) Brain: 0.05 ± 0.01 % ID/g organ
  Biodistribution (% ID/g organ) Heart: 2.49 ± 0.22 % ID/g organ
  Biodistribution (% ID/g organ) Kidney: 1.37 ± 0.18 % ID/g organ
  Biodistribution (% ID/g organ) Liver: 0.23 ± 0.03 % ID/g organ
  Biodistribution (% ID/g organ) Lungs: 1.38 ± 0.09 % ID/g organ
  Biodistribution (% ID/g organ) Olfactive bulbs: 0.18 ± 0.03 % ID/g organ
360 Min
  Biodistribution (% ID/g organ) Adrenals: 5.28 ± 0.95 % ID/g organ
  Biodistribution (% ID/g organ) Blood: 0.04 ± 0.001 % ID/g organ
  Biodistribution (% ID/g organ) Brain: 0.05 ± 0.02 % ID/g organ
  Biodistribution (% ID/g organ) Heart: 2.13 ± 0.45 % ID/g organ
  Biodistribution (% ID/g organ) Kidney: 1.43 ± 0.25 % ID/g organ
  Biodistribution (% ID/g organ) Liver: 0.23 ± 0.02 % ID/g organ
  Biodistribution (% ID/g organ) Lungs: 1.21 ± 0.27 % ID/g organ
  Biodistribution (% ID/g organ) Olfactive bulbs: 0.16 ± 0.04 % ID/g organ
480 Min
  Biodistribution (% ID/g organ) Adrenals: 4.22 ± 0.12 % ID/g organ
  Biodistribution (% ID/g organ) Blood: 0.03 ± 0.001 % ID/g organ
  Biodistribution (% ID/g organ) Brain: 0.03 ± 0.001 % ID/g organ
  Biodistribution (% ID/g organ) Heart: 1.48 ± 0.12 % ID/g organ
  Biodistribution (% ID/g organ) Kidney: 0.87 ± 0.15 % ID/g organ
  Biodistribution (% ID/g organ) Liver: 0.16 ± 0.01 % ID/g organ
  Biodistribution (% ID/g organ) Lungs: 0.75 ± 0.07 % ID/g organ
  Biodistribution (% ID/g organ) Olfactive bulbs: 0.16 ± 0.03 % ID/g organ
